Legend:
[1] = tested on: lethally-irradiated female B6D2F1 mice; experiment: Survival of lethally-irradiated mice (10 Gy total body irradiation); assay type: in vivo; settings: groups of 12 animals
Procedure: Treatment of ionizing radiation exposure. The effect of selected F1Cs on survival of lethally-irradiated female B6D2F1 mice were compared to control animals treated with vehicle alone. The animals were exposed to 10 Gy of total body irradiation at 2.5 Gy/min using a ^137Cs source. […] For Group 4, test article was administered as a 50 μL volume, by intramuscular injection for three consecutive days. The formulation was a suspension containing 0.1% w/v carboxymethyl-cellulose, 0.9% w/v sodium chloride and 0.05% v/v phenol. The formulations were agitated to uniformly resuspend the F1C before syringing, and injected into animals within a few minutes of drawing into the syringe to prevent settling in the syringe.
The groups of animals were treated as follows.
The number of surviving animals is shown for day 6, 7, 12 and 21.

[2] = tested on: U937 human promonocytic leukemia cells; experiment: Microarray analysis of transcript levels in PMA-treated U937 cells exposed to BrEA; assay type: cell-based; settings: for Ratio of BrEA treated cells compared to control cells (transcript level): 10 μM BrEA, PMA-treated U937 cells
Source text: Modulation of transcription. The effect of 16α-bromoepiandrosterone (“BrEA”) on transcript levels in cells in vitro was studied using a microarray to allow simultaneous monitoring of the expression of many genes to allow detailed analysis of the molecular pathways involved in biological responses to the compound.
In general, microarray technology works by covalently linking short DNA sequences that are complementary to the transcripts of many different genes on a single slide or array chip. mRNAs from test and control samples are generated and labeled with one or more colored fluorescent dyes or probes. The probes are hybridized with the array, which is then scanned by laser. The color and intensity of the fluorescent signal at each spot denotes relative expression level of each gene. The capacity of other F1Cs described herein, e.g., a F1C in compound group 1, 2, 3, 4 or 5, to modulate gene expression is characterized in a similar manner.
The array used in the experiment described below, contained about 12,000 known genes. The experiment used U937 human promonocytic leukemia cells that differentiate to monocyte/macrophage cells in the presence of phorbol-12-myristate-13-acetate (“PMA”). The U937 cells were PMA treated and then exposed to BrEA for 1 hr, 2 hrs, or 4 hrs, followed by bacterial lipopolysaccharide (“LPS”) stimulation for 1 hr, 2 hrs or 4 hrs. The level of transcripts of the genes on the array was measured at the time points using RNA prepared from BrEA-treated and control (no BrEA) cells. U937 cells were plated at 1×10^5 cells/mL in the presence of 3 ng/mL PMA (Sigma, Catalog #P-8139) for 48 hrs. Cells were then treated with either 10 μM BrEA or DMSO (vehicle) for 1 hr, 2 hr, and 4 hrs. At each time point, cells were harvested and total RNA was extracted using Qiagen Rneasy kit according to manufacturer's specification. Total RNA samples were then analyzed by Mergen Ltd. (San Leandro, Calif. www.mergen.com) to perform microarray assay.
For the microarray assay, Dnase-treated total RNA (20 micrograms) was reverse-transcribed using an oligo[(dT)24 T7 promoter]65 primer (consisting of the nucleotide binding sequence for the T7 RNA polymerase followed by 24 thymidine nucleotides). This was followed by second strand synthesis. The reaction mixture was then treated with Rnase I to digest the remaining RNA. The double-stranded cDNA was phenol-chloroform extracted and used as template for in vitro transcription (T7 MEGAscript, Ambion, Inc.) to generate biotin-labeled cRNA probes. These probes were hybridized overnight at 30° C. with continuous agitation to Mergen's ExpressChip HO5 DNA Microarray System (catalog number HO5-001) containing 12,000 genes. The arrays were then washed, and hybridized probes were detected using Mergen's cyanine-3 fluorescent dye-conjugated protein. Chips were imaged using an Affymetrix 417-418 form Affymetrix/Genetic MicroSystems (www.affymetrix.com) and spot intensity was quantitated using ImaGenefrom BioDiscovery Inc. .______
The up-regulation of many of these genes most apparent at 4 hr after treatment, at which time roughly 700 genes were within the above criteria. Some examples are shown in the following list. The ratios given in the list are from BrEA treated cells compared to control cells not treated with BrEA.

[3] = tested on: female BALB/cByJ mice; experiment: Delayed type hypersensitivity (DTH) response to topical oxazolone challenge, differential ear thickness; assay type: in vivo; settings: 24 hours after oxazolone challenge; vehicle alone 0.225 mm
Procedure: Modulation of delayed type hypersensitivity. The capacity of F1Cs to modulate delayed type hypersensitivity (DTH) is determined in mice. Groups of five female BALB/cByJ mice (20-25 grams) are anesthetized and 100 μL of a 3% solution of oxazolone is applied on day 0 to the shaved abdomen and dried. Seven days later, on day 7, the mice are challenged by applying 5 μL of oxazolone topically to each side of the right ear. The F1C (at about 20-100 mg/mL) in vehicle is administered by subcutaneous injection (2 mg/day) one time on day 6, 24 hours before the oxazolone challenge. The vehicle as a non-aqueous suspension of the F1C in, e.g., 2% benzyl alcohol w/v, 0.1% Brij 96 w/v and equal volumes of PEG 300 and propylene glycol.
Dexamethasone in saline (0.2 mg/mL) is administered daily for 9 days (day −1 to 7), first dose 24 hours before sensitization, last dose at challenge by subcutaneous injection (0.01 mg/dose, 50 μL/injection). On Day 8, 24 hours following the oxazolone challenge, both the right and left ear thicknesses are measured using a micrometer caliper and the differences are determined. The differential ear thickness is measured as an indicator of the DTH response to topical oxazolone challenge. The DTH response is expressed as the difference in the thickness (mm) between the right and the left ears for each animal.

[4] = 0.6 mg i.m. daily for 3 consecutive days after 10 Gy
[5] = 0.6 mg s.c. daily for 3 consecutive days, first dose 2 to 4 hours after 10 Gy
[6] = 3.0 mg s.c. daily for 3 consecutive days after 10 Gy

Q: Which results are given for `C[C@]12CC[C@H]3[C@@H](CC=C4C[C@@H](O)CC[C@@]43C)[C@@H]1CC[C@@H]2O` [3β,17β-dihydroxyandrost-5-ene]?
A: number of surviving animals, day 6 [1, 4]: 12; number of surviving animals, day 7 [1, 4]: 12; number of surviving animals, day 12 [1, 4]: 11; number of surviving animals, day 21 [1, 4]: 9; number of surviving animals, day 6 [1, 5]: 12; number of surviving animals, day 7 [1, 5]: 11; number of surviving animals, day 12 [1, 5]: 10; number of surviving animals, day 21 [1, 5]: 7; number of surviving animals, day 6 [1, 6]: 12; number of surviving animals, day 7 [1, 6]: 12; number of surviving animals, day 12 [1, 6]: 9; number of surviving animals, day 21 [1, 6]: 7

Q: What does the source list for `C[C@]12CC[C@H]3[C@@H](CC=C4C[C@@H](O)CC[C@@]43C)[C@@H]1CC[C@@H]2N` [3β-hydroxy-17β-aminoandrost-5-ene]?
A: number of surviving animals, day 6 [1, 5]: 12; number of surviving animals, day 7 [1, 5]: 12; number of surviving animals, day 12 [1, 5]: 12; number of surviving animals, day 21 [1, 5]: 11

Q: What does the source list for `C[C@]12CC[C@H](O)C[C@@H]1CC[C@@H]1[C@@H]2CC[C@]2(C)C(=O)[C@H](Br)C[C@@H]12` [BrEA, 16α-bromoepiandrosterone]?
A: number of genes up-regulated (at least two-fold higher than control and significantly higher than background) ([2]; 4 hr after treatment, array of about 12,000 genes): roughly 700 genes; transcripts of Cul1 ([2]; at 1 hr): increased; transcripts of EGR1 ([2]; at 1 hr): increased; transcripts of USF1 ([2]; at 1 hr): increased; transcripts of c-Fos ([2]; at 1 hr): increased; Jun B transcript ([2]; at 4 hrs): increased; Ratio of BrEA treated cells compared to control cells (transcript level) ([2]; gene ATF3 (Hs.460)): 5.3; Ratio of BrEA treated cells compared to control cells (transcript level) ([2]; gene ATP2B1 (Hs.78546)): 5.4; Ratio of BrEA treated cells compared to control cells (transcript level) ([2]; gene DUSP5 (Hs.2128)): 10.2; Ratio of BrEA treated cells compared to control cells (transcript level) ([2]; gene EHD1 (Hs.155119)): 9.7; Ratio of BrEA treated cells compared to control cells (transcript level) ([2]; gene GG2-1 (Hs.17839)): 10.3; Ratio of BrEA treated cells compared to control cells (transcript level) ([2]; gene GRO2 (Hs.75765)): 9.6; Ratio of BrEA treated cells compared to control cells (transcript level) ([2]; gene GRO3 (Hs.89690)): 124.7; Ratio of BrEA treated cells compared to control cells (transcript level) ([2]; gene HIVEP2 (Hs.75063)): 6.6; Ratio of BrEA treated cells compared to control cells (transcript level) ([2]; gene HSPA1B (Hs.274402)): 7.8; Ratio of BrEA treated cells compared to control cells (transcript level) ([2]; gene IL1B (Hs.126256)): 27.5; Ratio of BrEA treated cells compared to control cells (transcript level) ([2]; gene IL1RN (Hs.81134)): 53.0; Ratio of BrEA treated cells compared to control cells (transcript level) ([2]; gene IL15RA (Hs.12503)): 7.6; Ratio of BrEA treated cells compared to control cells (transcript level) ([2]; gene IL23A (Hs.98309)): 131.8; Ratio of BrEA treated cells compared to control cells (transcript level) ([2]; gene INHBA (Hs.727)): 21.5; Ratio of BrEA treated cells compared to control cells (transcript level) ([2]; gene KIAA1376 (Hs.24684)): 7.7; Ratio of BrEA treated cells compared to control cells (transcript level) ([2]; gene KIAA1726 (Hs.164719)): 6.9; Ratio of BrEA treated cells compared to control cells (transcript level) ([2]; gene LOC51285 (Hs.27018)): 5.9; Ratio of BrEA treated cells compared to control cells (transcript level) ([2]; gene MACS (Hs.75607)): 30.0; Ratio of BrEA treated cells compared to control cells (transcript level) ([2]; gene MAIL (Hs.301183)): 25.5; Ratio of BrEA treated cells compared to control cells (transcript level) ([2]; gene MAP3K5 (Hs.151988)): 7.1; Ratio of BrEA treated cells compared to control cells (transcript level) ([2]; gene MGC5618 (Hs.177781)): 32.0; Ratio of BrEA treated cells compared to control cells (transcript level) ([2]; gene NAF1 (Hs.109281)): 6.4; Ratio of BrEA treated cells compared to control cells (transcript level) ([2]; gene NFKBIA (Hs.81328)): 11.3; Ratio of BrEA treated cells compared to control cells (transcript level) ([2]; gene OLR1 (Hs.77729)): 26.1; Ratio of BrEA treated cells compared to control cells (transcript level) ([2]; gene PBEF (Hs.239138)): 9.2; Ratio of BrEA treated cells compared to control cells (transcript level) ([2]; gene PIM2 (Hs.80205)): 14.5; Ratio of BrEA treated cells compared to control cells (transcript level) ([2]; gene PKIG (Hs.3407)): 5.4; Ratio of BrEA treated cells compared to control cells (transcript level) ([2]; gene PTX3 (Hs.2050)): 1348.4; Ratio of BrEA treated cells compared to control cells (transcript level) ([2]; gene REV3L (Hs.115521)): 5.3; Ratio of BrEA treated cells compared to control cells (transcript level) ([2]; gene RGS16 (Hs.183601)): 29.2; Ratio of BrEA treated cells compared to control cells (transcript level) ([2]; gene RIPK2 (Hs.103755)): 6.6; Ratio of BrEA treated cells compared to control cells (transcript level) ([2]; gene SCYA1 (Hs.72918)): 40.4; Ratio of BrEA treated cells compared to control cells (transcript level) ([2]; gene SCYA4 (Hs.75703)): 67.3; Ratio of BrEA treated cells compared to control cells (transcript level) ([2]; gene SCYA8 (Hs.271387)): 7.0; Ratio of BrEA treated cells compared to control cells (transcript level) ([2]; gene SCYA20 (Hs.75498)): 174.0; Ratio of BrEA treated cells compared to control cells (transcript level) ([2]; gene SERPINE1 (Hs.82085)): 8.4; Ratio of BrEA treated cells compared to control cells (transcript level) ([2]; gene SOD2 (Hs.318885)): 39.7; Ratio of BrEA treated cells compared to control cells (transcript level) ([2]; gene SSI-1 (Hs.50640)): 16.9; Ratio of BrEA treated cells compared to control cells (transcript level) ([2]; gene STAT5A (Hs.167503)): 5.9; Ratio of BrEA treated cells compared to control cells (transcript level) ([2]; gene STK2 (Hs.1087)): 9.0; Ratio of BrEA treated cells compared to control cells (transcript level) ([2]; gene TNFAIP2 (Hs.101382)): 17.4; Ratio of BrEA treated cells compared to control cells (transcript level) ([2]; gene TNFAIP3 (Hs.211600)): 5.1; Ratio of BrEA treated cells compared to control cells (transcript level) ([2]; gene TNFAIP6 (Hs.29352)): 1733.0; Ratio of BrEA treated cells compared to control cells (transcript level) ([2]; gene TRAF1 (Hs.2134)): 15.0; Ratio of BrEA treated cells compared to control cells (transcript level) ([2]; gene TRG@ (Hs.112259)): 17.4

Q: How did the “DTH response (differential ear thickness, right minus left ear)” value [3] turn out when `O=P1(N(CCCl)CCCl)NCCCO1` (stereo not drawn) [cyclophosphamide] was run?
A: The value was 0.092 mm.

Q: With `C[C@@H]1C[C@H]2[C@@H]3CCC4=CC(=O)C=C[C@]4(C)[C@@]3(F)[C@@H](O)C[C@]2(C)[C@@]1(O)C(=O)CO` [dexamethasone] as the compound, how does the “DTH response (differential ear thickness, right minus left ear)” value [3] read?
A: Its value is 0.144 mm.

From US7547687B2, “Therapeutic treatment methods” (priority 2002, dated 2009)
